Assay results published in patent US6946547B2, “Ecstasy-class analogs and use of same in detection of ecstasy-class compounds” (Microgenics Corporation, priority 2000, dated 2005).
Marks after values point to notes of the source that are not given here.

How the values were obtained:
[1] = tested on: Antibody 1A9; experiment: CEDIA ecstasy-class assay on a Hitachi clinical chemistry analyzer; format: binding, mouse; settings: for detection in the CEDIA ecstasy-class MDMA assay: in words
Description: Antibodies obtained using any of the aforementioned techniques are screened or purified not only for their ability to react with an ecstasy-class compound, but also for a low cross-reactivity with potential interfering substances. “Cross reactivity” is determined in a quantitative immunoassay by establishing a standard curve using known dilutions of the target analyte, e.g., MDMA. […] The cross-reactivity is the apparent concentration divided by the actual concentration multiplied by 100. […] Alternatively, the cross-reactivity can be determined in the same type of immunoassay in which the antibody will ultimately be used.
• a. Preparation of Reagents:
Enzyme Donor (ED) Reagent was prepared as a liquid reagent with the components below:
Assay Protocol: The assay was performed on a Hitachi clinical chemistry analyzer as follows: Sample was pipetted into a reaction cuvette. EA reagent, containing antibody, was added. The mixture was incubated at 37° C. for approximately 5 minutes. ED reagent containing […] was subsequently added, and the incubation continued for 4 minutes at 37° C. The rate of substrate hydrolysis was measured photometrically at 570 nm (with subtraction of background at 660 nm) from four to five minutes after ED addition.

[2] = tested on: 1A9 anti-ecstasy antibody; experiment: Enhanced CEDIA DAU Amphetamines assay (1A9 antibody and ED28-(MB-MDA)2 added); settings: methamphetamine = 100
[3] = Standard CEDIA DAU Amphetamines assay, Hitachi 911; settings: methamphetamine = 100
[4] = Antibody 1A9, Experiment 1, concentration 300 ng/mL
[5] = Antibody 1A9, Experiment 1, concentration 1000 ng/mL
[6] = Antibody 1A9, Experiment 1, concentration 5000 ng/mL
[7] = antibody 1A9, summary of detected ecstasy-class compounds
[8] = Antibody 1A9, Experiment 2, concentration 600,000 ng/mL
[9] = Antibody 1A9, Experiment 2, concentration 1,000,000 ng/mL

Compound	Cross-Reactivity [1, 4]	Cross-Reactivity [1, 5]	Cross-Reactivity [1, 6] [%]	Cross-Reactivity [1, 7] [%]	Cross-reactivity, Enhanced CEDIA Amphetamines ([2]; concentration 300 ng/ml)	Cross-reactivity, Enhanced CEDIA Amphetamines ([2]; concentration 500 ng/ml)	Cross-reactivity, Standard CEDIA Amphetamines ([3]; concentration 300 ng/ml)	Cross-reactivity, Standard CEDIA Amphetamines ([3]; concentration 500 ng/ml)	detection in the CEDIA ecstasy-class MDMA assay ([1]; antibody 1A9)	Cross-Reactivity [1, 8] [%]	Cross-Reactivity [1, 9] [%]
CCC(N)Cc1ccc2c(c1)OCO2 (centres unmarked) [BDB, 1-(3,4-methylenedioxyphenyl)-2-butanamine]	33%	50* %	30	33	105	125	5	7			
CNC(C)Cc1ccc(O)c(OC)c1 (centres unmarked) [HMMA, 4-hydroxy-3-methoxymethamphetamine]	<0.1%	<0.1%	<0.1						detected neither		
CCC(Cc1ccc2c(c1)OCO2)NC (centres unmarked) [MBDB, N-methyl-1-(3,4-methylenedioxyphenyl)-2-butanamine]	23%	29* %	18	23	80	97	64	73			
CC(N)Cc1ccc2c(c1)OCO2 (centres unmarked) [MDA, 3,4-methylenedioxyamphetamine]	55%	68* %	63	55	81	91	5	4			
CCNC(C)Cc1ccc2c(c1)OCO2 (centres unmarked) [MDEA, N-ethyl-3,4-methylenedioxyamphetamine]	155* %	484%		155	153		22	21			
CNC(C)Cc1ccc2c(c1)OCO2 (centres unmarked) [MDMA, 3,4-methylenedioxymethamphetamine]				100	129		49	50			
CN[C@@H](C)Cc1ccccc1 [Methamphetamine]					100	100	100	100	detected neither	0.056	
CC(N)C(O)c1ccccc1 (centres unmarked) [phenylpropanolamine]											0.0041
CN[C@@H](C)[C@@H](O)c1ccccc1 [pseudoephedrine]										0.0017	
(±)ephedrine											0.0047
